Assay results from patent US12180193B2, “Accelerating fibrosarcoma protein degrading compounds and associated methods of use” (Arvinas Operations, Inc., priority 2020, dated 2024).

Columns and labels:
BRAF G466V = target: T1, BRAF G466V (Homo sapiens, UniProt P15056, G466V); experiment: Cellular assay of target protein degradation, T-Rex 293 cells stably transfected with HA-BRAF G466V (HA immunofluorescence, high content imaging); format: cell-based; conditions: T-Rex 293 HA-BRAF G466V; for DC50: half maximal degradation, read-out: BRaf G466V DC50; for Dmax: maximum degradation observed
T1 construct: expressed in transfected cells
Summary of the method: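 24 h compound, 30 nM–3 pM final, 0.1% DMSO, 37° C; HA-BRAF G466V induced with 0.75 ng/mL doxycycline. PFA fix, Triton perm, anti-HA + Alexa fluor secondary, Hoechst/phalloidin counterstain; imaging. DC50, Dmax (% of control).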

BRAF V600E = target: T2, BRAF V600E (Homo sapiens, UniProt P15056, V600E); experiment: Cellular assay of target protein degradation, T-Rex 293 cells stably transfected with HA-BRAF_V600E (HA immunofluorescence, high content imaging); format: cell-based; conditions: T-Rex 293 HA-BRAF V600E; for DC50: half maximal degradation, read-out: BRaf V600E DC50; for Dmax: maximum degradation observed
T2 construct: expressed in transfected cells
Summary of the method: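 24 h compound exposure, 1 μM–0.1 nM final, 0.1% DMSO, 37 °C; cells induced with 1 ng/mL doxycycline. PFA fix, Triton permeabilize, anti-HA overnight 4 °C, Hoechst/phalloidin counterstain. Output: DC50, Dmax as % control.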

T1 sequence (P15056 whole entry G466V): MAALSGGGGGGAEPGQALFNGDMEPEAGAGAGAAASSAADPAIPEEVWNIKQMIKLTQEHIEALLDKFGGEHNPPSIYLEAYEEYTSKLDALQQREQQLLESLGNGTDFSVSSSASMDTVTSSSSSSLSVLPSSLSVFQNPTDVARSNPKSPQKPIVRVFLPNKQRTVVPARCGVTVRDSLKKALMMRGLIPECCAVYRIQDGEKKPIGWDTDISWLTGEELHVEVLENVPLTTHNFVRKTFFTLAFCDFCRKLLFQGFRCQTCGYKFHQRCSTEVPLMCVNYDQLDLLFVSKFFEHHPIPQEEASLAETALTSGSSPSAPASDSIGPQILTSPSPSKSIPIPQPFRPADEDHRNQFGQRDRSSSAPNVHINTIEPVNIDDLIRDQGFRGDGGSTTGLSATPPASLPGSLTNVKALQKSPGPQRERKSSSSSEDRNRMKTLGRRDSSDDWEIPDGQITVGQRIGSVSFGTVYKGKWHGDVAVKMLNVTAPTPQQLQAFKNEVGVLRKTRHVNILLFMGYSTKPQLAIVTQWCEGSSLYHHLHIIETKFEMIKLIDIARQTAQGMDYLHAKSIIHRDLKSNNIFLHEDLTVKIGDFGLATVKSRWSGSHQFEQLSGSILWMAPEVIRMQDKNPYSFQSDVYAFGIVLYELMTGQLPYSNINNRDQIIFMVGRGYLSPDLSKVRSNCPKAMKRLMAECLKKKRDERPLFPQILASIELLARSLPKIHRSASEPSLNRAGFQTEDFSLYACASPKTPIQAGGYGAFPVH
T2 sequence (P15056 whole entry V600E): as the sequence (P15056 whole entry G466V) above, with V466G, V600E counted along it

SMILES	DC50 (BRAF G466V)	DC50 (BRAF V600E)	Dmax (BRAF V600E)	Dmax (BRAF G466V)
O=C1CC[C@H](N2Cc3cc(C[C@@H](O)CN4CCN(c5ccc(-c6cnc7[nH]cc(C(=O)c8c(F)ccc(NS(=O)(=O)N9CC[C@@H](F)C9)c8F)c7c6)cc5)CC4)ccc3C2=O)C(=O)N1 [Compound 82, (3R)-N-{3-[5-(4-{4-[(2R)-3-{2-[(3S)-2,6-dioxopiperidin-3-yl]-1-oxo-2,3-dihydro-1H-isoindol-5-yl}-2-hydroxypropyl]piperazin-1-yl}phenyl)-1H-pyrrolo[2,3-b]pyridine-3-carbonyl]-2,4-difluorophenyl}-3-fluoropyrrolidine-1-sulfonamide]	> 30 nM	5 to 50 nM	35 to 70%	
O=C1CC[C@H](N2Cc3cc(N4CC(CN5C[C@@H]6CN(c7ccc(-c8cnc9[nH]cc(C(=O)c%10c(F)ccc(NS(=O)(=O)N%11CC[C@@H](F)C%11)c%10F)c9c8)cc7)C[C@@H]6C5)C4)ccc3C2=O)C(=O)N1 [Compound 85, (3R)-N-[3-(5-{4-[(3aR,6aS)-5-[(1-{2-[(3S)-2,6-dioxopiperidin-3-yl]-1-oxo-2,3-dihydro-1H-isoindol-5-yl}azetidin-3-yl)methyl]-octahydropyrrolo[3,4-c]pyrrol-2-yl]phenyl}-1H-pyrrolo[2,3-b]pyridine-3-carbonyl)-2,4-difluorophenyl]-3-fluoropyrrolidine-1-sulfonamide]	1 to 10 nM	< 5 nM	35 to 70%	> 70%
O=C1CC[C@@H](N2Cc3cc(N4CC(CN5C[C@@H]6CN(c7ccc(-c8cnc9[nH]cc(C(=O)c%10c(F)ccc(NS(=O)(=O)N%11CC[C@@H](F)C%11)c%10F)c9c8)cc7)C[C@@H]6C5)C4)ccc3C2=O)C(=O)N1 [Compound 86, (3R)-N-[3-(5-{4-[(3aR,6aS)-5-[(1-{2-[(3R)-2,6-dioxopiperidin-3-yl]-1-oxo-2,3-dihydro-1H-isoindol-5-yl}azetidin-3-yl)methyl]-octahydropyrrolo[3,4-c]pyrrol-2-yl]phenyl}-1H-pyrrolo[2,3-b]pyridine-3-carbonyl)-2,4-difluorophenyl]-3-fluoropyrrolidine-1-sulfonamide]	1 to 10 nM	5 to 50 nM	35 to 70%	> 70%
O=C1CCC(N2Cc3cc(N4CCN(C[C@H](O)Cc5ccc(-c6cnc7[nH]cc(C(=O)c8c(F)ccc(NS(=O)(=O)N9CC[C@@H](F)C9)c8F)c7c6)cc5)CC4)ccc3C2=O)C(=O)N1 (stereo partly drawn) [Compound 90, (3R)—N-[3-[5-[4-[(2R)-3-[4-[2-(2,6-dioxo-3-piperidyl)-1-oxo-isoindolin-5-yl]piperazin-1-yl]-2-hydroxy-propyl]phenyl]-1H-pyrrolo[2,3-b]pyridine-3-carbonyl]-2,4-difluoro-phenyl]-3-fluoro-pyrrolidine-1-sulfonamide]	1 to 10 nM	5 to 50 nM	35 to 70%	35 to 70%
O=C1CCC(N2Cc3cc(N4CCN(CC5CN(c6ncc(-c7cnc8[nH]cc(C(=O)c9c(F)ccc(NS(=O)(=O)N%10CC[C@@H](F)C%10)c9F)c8c7)cn6)C5)CC4)ccc3C2=O)C(=O)N1 (stereo partly drawn) [Compound 91, (3R)-N-[3-(5-{2-[3-({4-[2-(2,6-dioxopiperidin-3-yl)-1-oxo-2,3-dihydro-1H-isoindol-5-yl]piperazin-1-yl}methyl)azetidin-1-yl]pyrimidin-5-yl}-1H-pyrrolo[2,3-b]pyridine-3-carbonyl)-2,4-difluorophenyl]-3-fluoropyrrolidine-1-sulfonamide]	1 to 10 nM	5 to 50 nM	35 to 70%	> 70%
O=C1CCC(N2Cc3cc(N4CCC(CN5CC6(CCN(c7ccc(-c8cnc9[nH]cc(C(=O)c%10c(F)ccc(NS(=O)(=O)N%11CC[C@@H](F)C%11)c%10F)c9c8)cn7)C6)C5)CC4)ccc3C2=O)C(=O)N1 (stereo partly drawn) [Compound 92, (3R)-N-[3-(5-{6-[2-({1-[2-(2,6-dioxopiperidin-3-yl)-1-oxo-2,3-dihydro-1H-isoindol-5-yl]piperidin-4-yl}methyl)-2,6-diazaspiro[3.4]octan-6-yl]pyridin-3-yl}-1H-pyrrolo[2,3-b]pyridine-3-carbonyl)-2,4-difluorophenyl]-3-fluoropyrrolidine-1-sulfonamide]	1 to 10 nM	< 5 nM	35 to 70%	> 70%
O=C1CCC(N2Cc3cc(N4CCC(CN5CC6(CCN(c7ncc(-c8cnc9[nH]cc(C(=O)c%10c(F)ccc(NS(=O)(=O)N%11CC[C@@H](F)C%11)c%10F)c9c8)cn7)C6)C5)CC4)ccc3C2=O)C(=O)N1 (stereo partly drawn) [Compound 93, (3R)-N-[3-(5-{2-[2-({1-[2-(2,6-dioxopiperidin-3-yl)-1-oxo-2,3-dihydro-1H-isoindol-5-yl]piperidin-4-yl}lmethyl)-2,6-diazaspiro[3.4]octan-6-yl]pyrimidin-5-yl}-1H-pyrrolo[2,3-b]pyridine-3-carbonyl)-2,4-difluorophenyl]-3-fluoropyrrolidine-1-sulfonamide]	1 to 10 nM	< 5 nM	35 to 70%	> 70%
O=C1CCC(N2Cc3cc(C4CCN(CC5CCN(c6c(F)cc(-c7cnc8[nH]cc(C(=O)c9c(F)ccc(NS(=O)(=O)N%10CC[C@@H](F)C%10)c9F)c8c7)cc6F)CC5)CC4)ccc3C2=O)C(=O)N1 (stereo partly drawn) [Compound 94, (3R)-N-[3-(5-{4-[4-({4-[2-(2,6-dioxopiperidin-3-yl)-1-oxo-2,3-dihydro-1H-isoindol-5-yl]piperidin-1-yl}methyl)piperidin-1-yl]-3,5-difluorophenyl}-1H-pyrrolo[2,3-b]pyridine-3-carbonyl)-2,4-difluorophenyl]-3-fluoropyrrolidine-1-sulfonamide]	1 to 10 nM	5 to 50 nM	35 to 70%	> 70%

More lines, now with the values ahead:

DC50 (BRAF G466V)	DC50 (BRAF V600E)	Dmax (BRAF V600E)	Dmax (BRAF G466V)	SMILES
< 1 nM	50 to 500 nM	> 70%	35 to 70%	O=C1CC[C@H](N2Cc3cc(C4CN(CC5CCN(c6ccc(-c7cnc8[nH]cc(C(=O)c9c(F)ccc(NS(=O)(=O)N%10CC[C@@H](F)C%10)c9F)c8c7)cc6)CC5)C4)ccc3C2=O)C(=O)N1 [Compound 83, (3R)-N-{3-[5-(4-{4-[(3-{2-[(3S)-2,6-dioxopiperidin-3-yl]-1-oxo-2,3-dihydro-1H-isoindol-5-yl}azetidin-1-yl)methyl]piperidin-1-yl}phenyl)-1H-pyrrolo[2,3-b]pyridine-3-carbonyl]-2,4-difluorophenyl}-3-fluoropyrrolidine-1-sulfonamide]
< 1 nM	5 to 50 nM	35 to 70%	> 70%	O=C1CC[C@@H](N2Cc3cc(C4CN(CC5CCN(c6ccc(-c7cnc8[nH]cc(C(=O)c9c(F)ccc(NS(=O)(=O)N%10CC[C@@H](F)C%10)c9F)c8c7)cc6)CC5)C4)ccc3C2=O)C(=O)N1 [Compound 84, (3R)-N-{3-[5-(4-{4-[(3-{2-[(3R)-2,6-dioxopiperidin-3-yl]-1-oxo-2,3-dihydro-1H-isoindol-5-yl}azetidin-1-yl)methyl]piperidin-1-yl}phenyl)-1H-pyrrolo[2,3-b]pyridine-3-carbonyl]-2,4-difluorophenyl}-3-fluoropyrrolidine-1-sulfonamide]
< 1 nM	< 5 nM	35 to 70%	> 70%	O=C1CC[C@H](N2Cc3cc(C4CCN(CC5CCN(c6ccc(-c7cnc8[nH]cc(C(=O)c9c(F)ccc(NS(=O)(=O)N%10CC[C@@H](F)C%10)c9F)c8c7)cc6F)CC5)CC4)ccc3C2=O)C(=O)N1 [Compound 87, (3R)-N-{3-[5-(4-{4-[(4-{2-[(3S)-2,6-dioxopiperidin-3-yl]-1-oxo-2,3-dihydro-1H-isoindol-5-yl}piperidin-1-yl)methyl]piperidin-1-yl}-3-fluorophenyl)-1H-pyrrolo[2,3-b]pyridine-3-carbonyl]-2,4-difluorophenyl}-3-fluoropyrrolidine-1-sulfonamide]
< 1 nM	< 5 nM	35 to 70%	> 70%	O=C1CC[C@@H](N2Cc3cc(C4CCN(CC5CCN(c6ccc(-c7cnc8[nH]cc(C(=O)c9c(F)ccc(NS(=O)(=O)N%10CC[C@@H](F)C%10)c9F)c8c7)cc6F)CC5)CC4)ccc3C2=O)C(=O)N1 [Compound 88, (3R)-N-{3-[5-(4-{4-[(4-{2-[(3R)-2,6-dioxopiperidin-3-yl]-1-oxo-2,3-dihydro-1H-isoindol-5-yl}piperidin-1-yl)methyl]piperidin-1-yl}-3-fluorophenyl)-1H-pyrrolo[2,3-b]pyridine-3-carbonyl]-2,4-difluorophenyl}-3-fluoropyrrolidine-1-sulfonamide]
< 1 nM	< 5 nM	35 to 70%	35 to 70%	O=C1CCC(N2Cc3cc(OCCN4CC5(C4)CN(c4ccc(-c6cnc7[nH]cc(C(=O)c8c(F)ccc(NS(=O)(=O)N9CC[C@@H](F)C9)c8F)c7c6)cc4)C5)ccc3C2=O)C(=O)N1 (stereo partly drawn) [Compound 89, (3R)-N-[3-(5-{4-[6-(2-{[2-(2,6-dioxopiperidin-3-yl)-1-oxo-2,3-dihydro-1H-isoindol-5-yl]oxy}ethyl)-2,6-diazaspiro[3.3]heptan-2-yl]phenyl}-1H-pyrrolo[2,3-b]pyridine-3-carbonyl)-2,4-difluorophenyl]-3-fluoropyrrolidine-1-sulfonamide]
